Measurements reported in article PMC9877305, “Cytotoxic hexadepsipeptides and anti-coronaviral 4-hydroxy-2-pyridones from an endophytic Fusarium sp” (Frontiers in Chemistry, 2023).
Converted amounts (≈) assume the structure as drawn.

Tests used:
[1] = test system: human pancreatic cancer cell line (ASPC-1); test: Cytotoxic activity by CCK-8 method; assay type: cell-based
Procedure: The cytotoxic effects of all compounds against human pancreatic cancer cell line (ASPC-1) were evaluated by CCK-8 method.

H460 cells = test: Half toxic concentration in the antiviral assay host cells; assay type: cell-based
Procedure: (§1) Briefly, the H460 cells were inoculated into 96 well culture plates and cultured at 35°C under 5% CO2 condition, and infected by HCoV-OC43 virus with 100 times 50% tissue culture infective dose (TCID50) 24 h later; then the positive control drugs and test compounds were added. The half inhibitory concentration (IC50) and the half toxic concentration (TC50) were determined by the Reed and Muench method. The selectivity index (SI) was calculated as the ratio of TC50/IC50.

coronavirus (HCoV-OC43) = test: microbe, parasite or virus in culture; assay type: cell-based; conditions: for SI (TC50/IC50): HCoV-OC43 in H460 cells
Procedure: as §1

[2] = test system: pancreatic cancer cell line PANC-1; parameters: method as in Wang et al., 2019; conditions: PANC-1 cells; ref Wang et al., 2019; cited from earlier work
[3] = Homo sapiens, ASPC1, AsPC-1 cells
[4] = Betacoronavirus 1, OC43, NCI-H460, HCoV-OC43 (100 TCID50) in H460 cells

Molecule	IC50 [1, 3]	TC50 (H460 cells)	IC50 (coronavirus (HCoV-OC43); [4])	also measured
CC(C)C(O)C(=O)N(C)C(Cc1ccccc1)C(=O)OC(C(=O)N(C)C(Cc1ccccc1)C(=O)OC(C(=O)N(C)C(Cc1ccccc1)C(=O)O)C(C)C)C(C)C (centres unmarked) [Compound 1, Secobeauvericin A]	> 90 µM	–	–	–
CC(C)C1OC(=O)C(Cc2ccccc2)NC(=O)C(C(C)C)OC(=O)C(Cc2ccccc2)N(C)C(=O)C(C(C)C)OC(=O)C(Cc2ccccc2)NC1=O (centres unmarked) [Compound 2, Beauvericin M]	> 90 µM	–	–	melting point: 85 to 86 °C
CC1OC(=O)C(Cc2ccccc2)N(C)C(=O)C(C(C)C)OC(=O)C(Cc2ccccc2)N(C)C(=O)C(C(C)C)OC(=O)C(Cc2ccccc2)N(C)C1=O (centres unmarked) [Compound 3, Beauvericin N]	> 90 µM	–	–	melting point: 82 to 83 °C
CC(C)C1OC(=O)C(Cc2ccccc2)N(C)C(=O)C(C(C)C)OC(=O)C(Cc2ccccc2)N(C)C(=O)C(C(C)C)OC(=O)C(Cc2ccccc2)NC1=O (centres unmarked) [Compound 5, beauvericin D]	> 90 µM	–	–	–
CC[C@H](C)C[C@@H](C)/C=C(\C)[C@@H]1O[C@H](c2c(O)c(-c3ccc(O)cc3)cn(C)c2=O)CC[C@H]1C [Compound 6, (–)-sambutoxin]	> 90 µM	<0.02 µg/mL	–	–
CC[C@H](C)C[C@@H](C)/C=C(\C)[C@@H]1O[C@H](c2c(O)c([C@@]3(O)CCC(=O)C[C@@H]3O)cn(C)c2=O)CC[C@H]1C [Compound 7, (–)-oxysporidinone]	17.6 µM	23.09 µg/mL (≈ 47.2 µM)	13.3 µg/mL (≈ 27.2 µM)	SI (TC50/IC50) (coronavirus (HCoV-OC43)): 1.7
CC[C@H](C)C[C@@H](C)/C=C(\C)[C@@H]1O[C@H](c2c3c(cn(C)c2=O)[C@@]2(O)CCC(=O)C[C@@H]2O3)CC[C@H]1C [Compound 8, fusapyridon A]	29.7 µM	11.55 µg/mL (≈ 24.5 µM)	6.67 µg/mL (≈ 14.1 µM)	IC50 (coronavirus (HCoV-OC43); Betacoronavirus 1, OC43, NCI-H460, HCoV-OC43, unit as printed in running text): 6.65 µg/mL (≈ 14.1 µM); SI (TC50/IC50) (coronavirus (HCoV-OC43)): 1.7
CC[C@H](C)C[C@@H](C)/C=C(\C)[C@@H]1O[C@H](c2c3c(cn(C)c2=O)[C@@]2(OC)CCC(=O)C[C@@H]2O3)CC[C@H]1C [Compound 9, (–)-fusoxypyridone]	18.8 µM	11.55 µg/mL (≈ 23.8 µM)	> 6.67 µg/mL	–
CC(C)=CCc1c(O)cc(O)c(C=O)c1C(=O)c1c(O)cc(C)c(Cl)c1O [E]	–	–	–	IC50 [2]: 7.2 µM
Nc1ccn([C@@H]2O[C@H](CO)[C@@H](O)C2(F)F)c(=O)n1 [Gemcitabine, gemcitabine, reference compound]	1.53 µM	–	–	–
NC(=O)c1ncn([C@@H]2O[C@H](CO)[C@@H](O)[C@H]2O)n1 [Ribavirin, ribavirin, reference compound]	–	100 µg/mL (≈ 409 µM)	19.2 µg/mL (≈ 78.8 µM)	SI (TC50/IC50) (coronavirus (HCoV-OC43)): 5.2
beauvericin [Compound 4]	–	–	–	IC50 ([1]; AsPC-1 cells): 3.45 µM
